This is an account of results in PubChem BioAssay (NCI).

Common to all, as to experiment: growth of human tumour cells (NCI), 48 h
Assay [1] has as its system SK-MEL-5 melanoma.
For assay [2], the system named is HT29 colon.
The test system of assay [3] is NCI-H522 lung.
Assay [4] concerns A498 renal.
Assay [5] concerns OVCAR-5 ovarian.
For assay [6], the system named is UACC-257 melanoma.
The subject of assay [7] is 786-0 renal.
Assay [8] relates to PC-3 prostate.
The subject of assay [9] is MOLT-4 leukemia.
Assay [10] deals with SK-MEL-28 melanoma.

Molecules are shown by their SMILES. Values joined by “and” are separate entries in the source; they are usually repeats but may differ in a detail not shown here. Equal entries are not always repeated.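 Dose response: 5 concentrations. Exposure: 48 h. Format: 96-well plates. Endpoint: linear interpolation; highest concentration if not reached. The concentration for 50% growth inhibition is given as GI50. At the TGI there is no net growth.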 Where only a bound is given, the exact number is not on record here.

For `COc1cc2c3c(n(C)c(=O)c2cc1OC)-c1cc2c(cc1/C3=C\CNCCCN)OCO2`, the GI50 in assay [1] is 1.03 µM; in [2], 0.376 µM; in [3], 0.348 µM; in assay [4], 3.84 µM; in [5], 1.28 µM; in assay [6] it was 0.907 µM. For the same molecule, the GI50 in assay [7] is 0.367 µM; in assay [8], 0.272 µM; in assay [9] it was 0.0118 µM; in [10], 2.14 µM. In addition, the TGI in [1] is 2.71 µM; in assay [2] it was > 100 µM; in assay [4], 12.1 µM; in [5], 18.9 µM; in assay [6], 2.76 µM; in [7], 6.07 µM. Besides, the TGI in [8] stood at 3.16 µM; in assay [9], 0.0502 µM; in assay [10], 39.6 µM.
For the molecule `C=C1C(=O)O[C@H]2[C@H]1CC/C(COC(=O)c1cc3ccccc3s1)=C\CC[C@@]1(C)O[C@@H]21`, the GI50 in assay [1] is 1.75 µM; in assay [2], 0.499 µM; in assay [3], 0.987 µM; in assay [4], 10.1 µM; in [5], 2.02 µM; in assay [6], 1.77 µM. In addition, the GI50 is 1.52 µM in assay [7], 1.83 µM in [8], 1.88 µM in assay [9] and 1.76 µM in assay [10]. For the same molecule, the TGI in assay [1] was determined as 3.21 µM; in [2], 1.84 µM; in [3], 2.34 µM; in [4], 21.8 µM; in [5], 4.35 µM; in assay [6] it was 3.61 µM. Moreover, the TGI is 3.44 µM in [7], 3.59 µM in assay [8], 7.69 µM in assay [9] and 3.57 µM in [10].
As to `O=c1[nH]c(=O)n(C2OC(CO)C(O)C(O)C2O)cc1F` (stereo not given), the TGI in assay [1], in assay [2], in [3], in [4], in assay [5] and in assay [6] was > 100 µM throughout. In addition, the TGI in [7], in [8], in [9] and in [10] was > 100 µM throughout.
In the case of `Cc1ccc2[nH]c(C(=O)NN3C(=O)C(C)SC34CCCC(C)C4)c(-c3ccccc3)c2c1` (stereo not given), the GI50 in [1] is > 100 µM; in assay [2], 33.9 µM; in assay [3], 78 µM; in [4], > 100 µM; in [5], > 100 µM; in [6], 66.8 µM. Further, the GI50 is 58.3 µM in [7], 55.1 µM in assay [8], 19.3 µM in assay [9] and > 100 µM in assay [10]. For the same molecule, the TGI in assay [1], in assay [2], in assay [3], in assay [4], in [5] and in assay [6] was > 100 µM each time. The TGI in assay [7], in [8], in assay [9] and in assay [10] was > 100 µM each time.
Take `COc1cc2c3c(n(CCNCCCNCCn4c5c(c6cc(OC)c(OC)cc6c4=O)C(=O)c4ccccc4-5)c(=O)c2cc1OC)-c1ccccc1C3=O`: the GI50 is 4.93 µM in [1]; 0.0448 µM in [2]; < 0.0423 µM in assay [3]; 3.12 µM in [4]; 0.732 µM in [5]; 73.3 µM in [6]. The GI50 is 0.186 µM in assay [7], 0.0865 µM in assay [8] and 1.78 µM in assay [10]. Besides, the TGI is 22.5 µM in [1]; 6.66 µM in assay [3]; 14.5 µM in assay [4]; 7.56 µM in assay [5]; > 100 µM in [6]; 6.17 µM in [7]. Also, the values for the TGI in assay [8], in [9] and in [10] were 2.09 µM, 0.0432 µM and 5.07 µM, respectively.
`CC(C)(C)c1cc(NC(=O)Cc2ccc(-c3cnc4cc(-c5cnn(CCN6CCOCC6)c5)ccc4n3)cc2)no1`: the GI50 in assay [1] was 0.612 µM and 0.674 µM and 0.232 µM; in assay [2] it was 0.613 µM and 1.06 µM and 0.116 µM; in [3], 0.298 µM and 0.465 µM and 0.0962 µM; in assay [4], 0.0663 µM and 0.0152 µM; in [7], 0.297 µM and 0.764 µM and 0.092 µM; in [8] it was 0.481 µM and 1.02 µM and 0.135 µM. The GI50 in assay [9] was 0.26 µM and 0.429 µM and 0.115 µM; in assay [10], 0.885 µM and 0.826 µM and 0.139 µM. For the same molecule, the TGI is 50 µM and 11.3 µM and > 0.95 µM in [1]; 50 µM and > 100 µM and > 3 µM in assay [2]; 50 µM and > 100 µM and > 3 µM in assay [3]; 0.425 µM and 0.0791 µM in [4]; 50 µM and > 100 µM and > 3 µM in [5]; 50 µM and > 100 µM and > 3 µM in [6]. Besides, the TGI was 50 µM and > 100 µM and > 3 µM in assay [7]; 50 µM and > 100 µM and > 3 µM in [8]; 50 µM and > 100 µM and > 3 µM in [9]; 50 µM and > 100 µM and > 3 µM in assay [10].
As to `CCCCN1CSC(=S)N(Cc2ccccc2)C1`, the TGI in [1] was 67.5 µM; in assay [2], > 100 µM; in [3], > 71.8 µM; in assay [4], > 100 µM; in assay [5], > 100 µM; in assay [6], 60.2 µM. Moreover, the TGI in assay [7] was > 100 µM; in assay [8], > 100 µM; in assay [9], 78.2 µM; in assay [10], > 100 µM.
Regarding `COc1ccc(C2SCC(=O)N2NC(=O)Nc2c(C)nc3ccccn23)cc1` (stereo not given), the GI50 in assay [1] was > 100 µM; in [2], > 100 µM; in [3], 32.8 µM; in [4], 27.8 µM; in assay [5], 28.9 µM; in assay [6], > 100 µM. Moreover, the GI50 in assay [7] was 21.8 µM; in assay [8], 77.2 µM; in [9], > 100 µM; in assay [10] it was > 100 µM. Moreover, the TGI in assay [1] is > 100 µM; in [2], > 100 µM; in assay [3] it was 95.4 µM; in [4], 60.3 µM; in [5] it was > 100 µM; in assay [6] it was > 100 µM. Further, the TGI is 61.6 µM in [7], > 100 µM in [8], > 100 µM in [9] and > 100 µM in [10].
